Our source for the IC50 and efflux ratio values is patent publication US11834453B2, “Substituted pyrimido[5,4-d]pyrimidines as HER2 inhibitors” (Array BioPharma Inc., priority 2020, dated 2023).

SMILES strings stand for the structures. Like-named read-outs stand apart in the source and are kept apart here. Where only a bound is given, the exact number is not on record here.

One series addresses EGFR (Homo sapiens (Human), UniProt P00533). Briefly: ErbB enzyme assay (CisBio HTRF KinEASE-TK), Assay 3. The series is classed as biochemical. Summed up:
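Kinase incubated 30 min at 22 °C with 250 nM biotinylated TK substrate, 1 mM ATP and serially diluted compound in 25 mM HEPES pH 7.4, 10 mM MgCl2, 0.01% Triton X-100, 2% DMSO. Phosphorylation read by HTRF (Sa-XL665/TK-Ab-Cryptate); IC50 from 4-parameter fit of percent of control.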
(TR-FRET usually uses a lanthanide donor and a delayed reading to cut background.)

Series [1] has as its target ErbB2 insYVMA (HER2-YVMA, SEQ ID NO: 2) (Homo sapiens, UniProt P04626, INS775YVMA/P1170A). The series is described as follows: biochemical. The conditions noted are these: ErbB2 insYVMA enzyme assay.
A further series has as its target ErbB2 WT (Homo sapiens (Human), UniProt P04626). The series is described as follows: ErbB enzyme assay (CisBio HTRF KinEASE-TK), Assay 2. The series is classed as biochemical. In a few lines:
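ErbB2 phosphorylates 250 nM biotin-TK substrate at 1 mM ATP in 25 mM HEPES pH 7.4, 10 mM MgCl2, 0.01% Triton X-100 and 2% DMSO, for 30 min at 22 °C. Product is detected by HTRF with Sa-XL665 and TK-Ab-Cryptate. Percent of control is set by DMSO-only wells and pre-quenched wells.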

The target of another series is MDR1 (P-gp) (Homo sapiens (Human), UniProt P08183). Briefly: MDR1 transfected LLC-PK1 permeability/efflux, Assay 6. The note with it: pig.
A further series has as its target EGFR wild type (EGFR WT) (Homo sapiens (Human), UniProt P00533). The series is described as follows: Cellular phosphorylation assay, EGF-stimulated EGFR phosphorylation in engineered NIH 3T3 cells, Phospho-EGFR DuoSet IC ELISA, Assay 5. The series is classed as cell-based. Summed up: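 NIH 3T3 cells expressing EGFR WT (20,000/well, attached overnight) were exposed to serially diluted compound for 1 h at 37 °C, then stimulated with 100 ng/ml rEGF for 10 min. Phospho-EGFR in lysates measured by sandwich ELISA optical density; IC50 from curves.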
In general terms: ELISA stands for enzyme-linked immunosorbent assay.

Series [2] has as its target ErbB2 with Exon 20 YVMA insertion (HER2-YVMA) (Homo sapiens (Human), UniProt P04626, INS775YVMA). The series is described as follows: Cellular phosphorylation assay, constitutive ErbB2 phosphorylation (Y1196) in engineered NIH 3T3 cells, Assay 4. The series is classed as cell-based. Summed up:
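Engineered NIH 3T3 cells expressing HER2-YVMA treated with compounds 1 h at 37 °C, then formaldehyde-fixed and methanol-permeabilized. pErbB2 Y1196 detected by in-cell infrared immunofluorescence, normalized to GAPDH. IC50 from the normalized curves.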

The target of the next series is BCRP (Homo sapiens (Human), UniProt Q9UNQ0). The series is described as follows: BCRP transfected MDCKII canine Mdr1 knockout permeability/efflux, Assay 9. The note with it: dog, Assay 9 Pe Ratio, efflux ratio Papp(B-A)/Papp(A-B), BCRP transfected MDCKII canine Mdr1 knockout.
The mark [3] stands for this setting: LLC-PK1, Assay 6 Pe Ratio, efflux ratio Papp(B-A)/Papp(A-B), MDR1 transfected LLC-PK1.

Chain of EGFR (P00533 25-1210): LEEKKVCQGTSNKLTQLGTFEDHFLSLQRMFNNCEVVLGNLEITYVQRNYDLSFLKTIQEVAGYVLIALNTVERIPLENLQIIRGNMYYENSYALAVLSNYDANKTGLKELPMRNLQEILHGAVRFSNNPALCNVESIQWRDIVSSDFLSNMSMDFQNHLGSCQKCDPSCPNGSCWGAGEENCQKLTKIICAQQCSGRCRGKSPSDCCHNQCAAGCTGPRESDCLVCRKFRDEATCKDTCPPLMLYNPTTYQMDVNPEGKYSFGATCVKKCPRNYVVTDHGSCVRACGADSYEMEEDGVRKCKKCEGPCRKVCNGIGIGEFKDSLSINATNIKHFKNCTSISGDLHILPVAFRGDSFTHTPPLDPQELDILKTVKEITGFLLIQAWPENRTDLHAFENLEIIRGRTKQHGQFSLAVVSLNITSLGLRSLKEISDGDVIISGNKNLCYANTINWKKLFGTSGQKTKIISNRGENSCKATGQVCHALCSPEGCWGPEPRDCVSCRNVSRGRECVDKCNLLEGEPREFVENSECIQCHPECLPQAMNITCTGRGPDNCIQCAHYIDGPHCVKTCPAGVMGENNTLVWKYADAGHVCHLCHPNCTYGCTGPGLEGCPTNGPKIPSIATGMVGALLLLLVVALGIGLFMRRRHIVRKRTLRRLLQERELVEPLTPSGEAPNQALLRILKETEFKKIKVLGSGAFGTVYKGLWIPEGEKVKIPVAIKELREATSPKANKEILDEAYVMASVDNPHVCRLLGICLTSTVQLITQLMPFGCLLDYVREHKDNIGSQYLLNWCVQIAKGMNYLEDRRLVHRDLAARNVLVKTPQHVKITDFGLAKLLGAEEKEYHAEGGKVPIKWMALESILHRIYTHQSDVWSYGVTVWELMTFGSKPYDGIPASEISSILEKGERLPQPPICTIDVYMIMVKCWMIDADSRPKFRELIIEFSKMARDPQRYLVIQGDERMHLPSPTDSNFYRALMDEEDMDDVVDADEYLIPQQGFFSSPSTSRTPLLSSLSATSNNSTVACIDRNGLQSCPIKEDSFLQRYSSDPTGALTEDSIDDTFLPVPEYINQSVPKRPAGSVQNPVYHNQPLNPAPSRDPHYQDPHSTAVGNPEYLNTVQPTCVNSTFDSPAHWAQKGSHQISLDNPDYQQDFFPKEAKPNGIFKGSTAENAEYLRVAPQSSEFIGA
Chain of EGFR wild type (EGFR WT) (P00533 25-1210): as above
Chain of ErbB2 WT (P04626 23-1255): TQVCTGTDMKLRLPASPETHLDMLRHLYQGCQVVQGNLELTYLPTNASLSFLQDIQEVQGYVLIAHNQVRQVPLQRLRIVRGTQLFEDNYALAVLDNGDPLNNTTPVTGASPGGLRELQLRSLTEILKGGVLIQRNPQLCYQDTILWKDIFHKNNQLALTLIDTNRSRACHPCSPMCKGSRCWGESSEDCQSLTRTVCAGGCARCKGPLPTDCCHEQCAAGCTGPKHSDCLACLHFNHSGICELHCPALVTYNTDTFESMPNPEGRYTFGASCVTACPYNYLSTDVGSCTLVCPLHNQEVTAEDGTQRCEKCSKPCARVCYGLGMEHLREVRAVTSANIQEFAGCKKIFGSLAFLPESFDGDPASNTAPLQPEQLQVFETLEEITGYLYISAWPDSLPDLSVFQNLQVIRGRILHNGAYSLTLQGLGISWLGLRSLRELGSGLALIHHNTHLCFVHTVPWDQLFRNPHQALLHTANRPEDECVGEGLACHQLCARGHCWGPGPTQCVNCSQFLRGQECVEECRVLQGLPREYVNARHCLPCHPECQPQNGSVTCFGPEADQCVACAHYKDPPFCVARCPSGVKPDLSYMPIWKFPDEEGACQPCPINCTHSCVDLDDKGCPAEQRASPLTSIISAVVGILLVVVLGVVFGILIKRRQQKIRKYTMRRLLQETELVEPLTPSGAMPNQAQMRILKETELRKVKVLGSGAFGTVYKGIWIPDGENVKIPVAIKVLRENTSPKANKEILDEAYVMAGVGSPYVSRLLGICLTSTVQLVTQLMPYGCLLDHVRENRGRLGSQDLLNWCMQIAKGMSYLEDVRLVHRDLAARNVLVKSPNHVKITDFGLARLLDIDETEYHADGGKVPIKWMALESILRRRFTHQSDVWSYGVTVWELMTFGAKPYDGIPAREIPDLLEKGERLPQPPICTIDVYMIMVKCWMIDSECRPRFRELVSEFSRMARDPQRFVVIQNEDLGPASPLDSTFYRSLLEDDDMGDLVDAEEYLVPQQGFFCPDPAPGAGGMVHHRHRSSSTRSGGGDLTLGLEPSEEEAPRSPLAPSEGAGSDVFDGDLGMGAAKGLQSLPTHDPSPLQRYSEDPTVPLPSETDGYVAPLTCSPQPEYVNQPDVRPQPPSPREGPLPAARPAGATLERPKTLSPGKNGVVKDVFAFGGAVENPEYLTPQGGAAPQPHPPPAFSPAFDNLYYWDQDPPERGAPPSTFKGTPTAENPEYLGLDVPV
Chain of ErbB2 with Exon 20 YVMA insertion (HER2-YVMA) (P04626 other isoform, or with tags, fused parts or gaps ins YVMA behind 775): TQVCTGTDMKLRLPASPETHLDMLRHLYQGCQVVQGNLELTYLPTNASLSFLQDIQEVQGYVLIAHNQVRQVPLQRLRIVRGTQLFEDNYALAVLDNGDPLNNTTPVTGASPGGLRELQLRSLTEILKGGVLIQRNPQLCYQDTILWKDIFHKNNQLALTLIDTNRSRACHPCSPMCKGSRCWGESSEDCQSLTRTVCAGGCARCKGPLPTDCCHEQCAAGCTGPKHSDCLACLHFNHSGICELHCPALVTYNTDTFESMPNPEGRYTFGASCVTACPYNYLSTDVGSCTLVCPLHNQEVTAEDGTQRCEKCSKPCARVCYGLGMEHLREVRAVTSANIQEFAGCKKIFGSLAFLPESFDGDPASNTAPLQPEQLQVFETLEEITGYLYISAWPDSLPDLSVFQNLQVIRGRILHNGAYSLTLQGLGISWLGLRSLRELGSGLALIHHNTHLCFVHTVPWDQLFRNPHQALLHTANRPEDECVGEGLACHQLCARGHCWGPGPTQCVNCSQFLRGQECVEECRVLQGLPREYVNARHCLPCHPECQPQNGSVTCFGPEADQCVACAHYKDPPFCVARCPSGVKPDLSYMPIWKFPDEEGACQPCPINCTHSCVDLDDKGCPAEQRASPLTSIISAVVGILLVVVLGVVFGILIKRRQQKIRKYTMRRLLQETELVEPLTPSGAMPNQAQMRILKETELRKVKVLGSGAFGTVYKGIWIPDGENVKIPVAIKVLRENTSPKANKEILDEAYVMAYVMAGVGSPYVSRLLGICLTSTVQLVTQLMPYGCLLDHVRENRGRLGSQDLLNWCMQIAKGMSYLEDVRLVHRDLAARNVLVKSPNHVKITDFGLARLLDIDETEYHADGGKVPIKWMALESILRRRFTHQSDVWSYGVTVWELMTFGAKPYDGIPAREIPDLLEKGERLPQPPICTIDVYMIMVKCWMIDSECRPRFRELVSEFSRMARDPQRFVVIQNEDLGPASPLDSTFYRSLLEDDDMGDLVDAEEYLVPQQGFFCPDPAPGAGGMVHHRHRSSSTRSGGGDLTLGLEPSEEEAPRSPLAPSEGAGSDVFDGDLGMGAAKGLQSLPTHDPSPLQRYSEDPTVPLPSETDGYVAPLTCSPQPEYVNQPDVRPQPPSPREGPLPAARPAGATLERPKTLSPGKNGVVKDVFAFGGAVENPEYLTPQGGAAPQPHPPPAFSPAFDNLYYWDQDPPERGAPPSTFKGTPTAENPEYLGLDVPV
Protocol for BCRP: BCRP transfected MDCKII cells (Assay 8) and BCRP transfected MDCKII canine Mdr1 knockout cells (Assay 9) were cultured and plated according to manufacturer's recommendations.
(§1) Both positive and negative controls were used to assess functionality of P-gp or BCRP efflux in the assays. Stock solutions for assay controls and the test article were prepared in DMSO for final test concentration of 1 μM. Final organic concentration in the assay was 1%. All dosing solutions contained 10 μM lucifer yellow to monitor MDCKII cell monolayer integrity.
(§2) For the apical to basolateral determination (A to B), 75 μL of the test article in transport buffer were added to the apical side of the individual transwells and 250 μL of basolateral media, without compound or lucifer yellow, were added to each well. For the basolateral to apical determination (B to A), 250 μL of test article in transport buffer were added to each well and 75 μL transport buffer, without compound or lucifer yellow, were added to each transwell. All tests were performed in triplicate, and each compound was tested for both apical to basolateral and basolateral to apical transport. The plates were incubated for 2 hours on a Lab-Line Instruments Titer Orbital Shaker (VWR, West Chester, PA) at 50 rpm and 37° C. with 5% CO2. All culture plates were removed from the incubator, 50 μL of media were removed from the apical and basolateral portion of each well, and added to 150 μL of 1 μM labetalol in 2:1 acetonitrile (ACN): H2O, v/v.
The plates were read using a Molecular Devices (Sunnyvale, CA) Gemini Fluorometer to evaluate the lucifer yellow concentrations at excitation/emission wavelengths of 425/535 nm. […] The plates were sealed, and the contents of each well analyzed by LC MS/MS. The compound concentrations were determined from the ratio of the peak areas of the compound to the internal standard (labetalol) in comparison to the dosing solution.
(§3) A MDS Sciex API 4000 (Applied Biosystems, Foster City, CA) mass spectrometer was used for detection of the analytes in the ion spray positive mode. Analyte responses were measured by multiple reaction monitoring (“MRM”) of transitions unique to each compound (the protonated precursor ion and selected product ions for each test article and m/z 329 to m/z 162 for labetalol, the internal standard.
(§4) The total run time, including re-equilibration, for a single injection was 1.2 minutes. […] The total run time, including re-equilibration, for a single injection was 0.61 minutes.
(§5) An efflux ratio is calculated from the mean apical to basolateral (A-B) Papp data and basolateral to apical (B-A) Papp data: Efflux ratio=Papp(B−A)/Papp(A−B)
Protocol for MDR1 (P-gp): Both MDR1 transfected LLC-PK1 (Assay 6) and MDR1 transfected MDCKII canine Mdr1 knockout cells (Assay 7) were cultured and plated according to manufacturer's recommendations with the exception that the passage media for the MDR1 transfected LLC-PK1 cell line contained only 2% fetal bovine serum so as to extend passage time out to seven days.
as §1, §2
The plates were read using a Molecular Devices (Sunnyvale, CA) Gemini Fluorometer to evaluate the lucifer yellow concentrations at excitation/emission wavelengths of 425/535 nm. These values were accepted when found to be below 2% for apical to basolateral and 5% basolateral to apical flux across the MDR1-transfected LLC-PK1 or BCRP-transfected MDCKII cell monolayers. The plates were sealed, and the contents of each well analyzed by LC MS/MS. The compound concentrations were determined from the ratio of the peak areas of the compound to the internal standard (labetalol) in comparison to the dosing solution.
as §3, §4, §5

Usually IC50 stands for the midpoint of a concentration-inhibition curve. By efflux ratio is commonly meant a quotient of directional permeabilities that is used to spot active efflux. For the molecule `Cc1cc(Nc2ncnc3cnc(N4CCOC5CC54)nc23)ccc1Oc1ccc2c(c1)ncn2C` (racemic) [Example 60, 6-(2-oxa-5-azabicyclo[4.1.0]heptan-5-yl)-N-(3-methyl-4-((1-methyl-1H-benzo[d]imidazol-5-yl)oxy)phenyl)pyrimido[5,4-d]pyrimidin-4-amine], the IC50 on EGFR is 8860 nM; in series [1] (read-out: Assay 1 IC50) it was 19.4 nM; at ErbB2 WT, 27.6 nM; on EGFR wild type (EGFR WT), at least 5000 nM; in series [2], 8.5 nM. The efflux ratio at 2 h, 1 μM at MDR1 (P-gp) (setting [3]) was found to be 2.6.

For the molecule `Cc1cc(Nc2ncnc3cnc(N[C@H]4CCOC4)nc23)ccc1Oc1ccc2c(c1)ncn2C` [Example 17, (S)—N8-(3-methyl-4-((1-methyl-1H-benzo[d]imidazol-5-yl)oxy)phenyl)-N2-(tetrahydrofuran-3-yl)pyrimido[5,4-d]pyrimidine-2,8-diamine], the IC50 on EGFR is 2350 nM; in series [1] (read-out: Assay 1 IC50), 7 nM; against ErbB2 WT it was 6 nM; at EGFR wild type (EGFR WT), at least 5000 nM; in series [2] it was 9.2 nM. Moreover, the efflux ratio at 2 h, 1 μM on MDR1 (P-gp) (setting [3]) amounted to 6.6.

`Cc1cc(Nc2ncnc3cnc(NC45CC(C4)C5)nc23)ccc1Oc1ccc2c(c1)ncn2C` [Example 18, N2-(bicyclo[1.1.1]pentan-1-yl)-N8-(3-methyl-4-((1-methyl-1H-benzo[d]imidazol-5-yl)oxy)phenyl)pyrimido[5,4-d]pyrimidine-2,8-diamine]: the IC50 was at least 10000 nM at EGFR; 122 nM in series [1] (read-out: Assay 1 IC50); 167 nM against ErbB2 WT; at least 5000 nM against EGFR wild type (EGFR WT); 47.8 nM in series [2]. For the same molecule, the efflux ratio at 2 h, 1 μM at MDR1 (P-gp) (setting [3]) is 2.6.

As to `CC(=O)N1CCN(c2ncc3ncnc(Nc4ccc(Oc5ccc6c(c5)ncn6C)c(C)c4)c3n2)CC1` [Example 24, 1-(4-(8-((3-methyl-4-((1-methyl-1H-benzo[d]imidazol-5-yl)oxy)phenyl)amino)pyrimido[5,4-d]pyrimidin-2-yl)piperazin-1-yl)ethan-1-one], the IC50 was at least 10000 nM against EGFR; 18.2 nM in series [1] (read-out: Assay 1 IC50); 31.5 nM at ErbB2 WT; at least 5000 nM against EGFR wild type (EGFR WT); 7.1 nM in series [2]. The efflux ratio at 2 h, 1 μM at MDR1 (P-gp) (setting [3]) amounted to 30.

`Cc1cc(Nc2ncnc3cnc(N4CCCC5(COC5)C4)nc23)ccc1Oc1ccc2c(c1)ncn2C` [Example 45, N-(3-methyl-4-((1-methyl-1H-benzo[d]imidazol-5-yl)oxy)phenyl)-6-(2-oxa-6-azaspiro[3.5]nonan-6-yl)pyrimido[5,4-d]pyrimidin-4-amine]: the IC50 stood at 4740 nM at EGFR, 31 nM in series [1] (read-out: Assay 1 IC50), 25 nM on ErbB2 WT and 56.2 nM in series [2]. Further, the efflux ratio at 2 h, 1 μM at MDR1 (P-gp) (LLC-PK1) was 2.2.

Take `Cc1cc(Nc2ncnc3cnc(N4CC[C@@H](C)C4=O)nc23)ccc1Oc1ccc2c(c1)ncn2C` [Example 51, (R)-3-methyl-1-(8-((3-methyl-4-((1-methyl-1H-benzo[d]imidazol-5-yl)oxy)phenyl)amino)pyrimido[5,4-d]pyrimidin-2-yl)pyrrolidin-2-one]: the concentration for half-maximal inhibition (IC50) was at least 10000 nM at EGFR, 41.1 nM in series [1] (read-out: Assay 1 IC50), 79.3 nM on ErbB2 WT and 52.1 nM in series [2]. Also, the efflux ratio at 2 h, 1 μM at MDR1 (P-gp) (setting [3]) stood at 4.4.

As to `Cc1cc(Nc2ncnc3cnc(N4CC5COC(C5)C4)nc23)ccc1Oc1ccc2c(c1)ncn2C` (centres unmarked) [Example 67, 6-(6-oxa-3-azabicyclo[3.2.1]octan-3-yl)-N-(3-methyl-4-((1-methyl-1H-benzo[d]imidazol-5-yl)oxy)phenyl)pyrimido[5,4-d]pyrimidin-4-amine], the IC50 against EGFR is at least 10000 nM; in series [1] (read-out: Assay 1 IC50), 15.1 nM; on ErbB2 WT, 34.3 nM; in series [2], 86.7 nM. Besides, the efflux ratio at 2 h, 1 μM at MDR1 (P-gp) (setting [3]) was 2.1.

With `Cc1cc(Nc2ncnc3cnc(N4CC5CC(C4)O5)nc23)ccc1Oc1ccc2c(c1)ncn2C.O=C(O)C(F)(F)F` [Example 69, 6-(6-oxa-3-azabicyclo[3.1.1]heptan-3-yl)-N-(3-methyl-4-((1-methyl-1H-benzo[d]imidazol-5-yl)oxy)phenyl)pyrimido[5,4-d]pyrimidin-4-amine 2,2,2-trifluoroacetate], the IC50 is at least 10000 nM against EGFR, 27.6 nM in series [1] (Assay 1 IC50 (nM)), 161 nM against ErbB2 WT and 35.8 nM in series [2]. For the same molecule, at MDR1 (P-gp) (LLC-PK1), the efflux ratio at 2 h, 1 μM stood at 2.6.

As to `Cc1cc(Nc2ncnc3cnc(N(C)CC4(O)CCC4)nc23)ccc1Oc1ccc2c(c1)ncn2C` [Example 164, 1-((methyl(8-((3-methyl-4-((1-methyl-1H-benzo[d]imidazol-5-yl)oxy)phenyl)amino)pyrimido[5,4-d]pyrimidin-2-yl)amino)methyl)cyclobutan-1-ol], the IC50 was at least 10000 nM on EGFR; 28 nM in series [1] (read-out: Assay 1 IC50); 52.3 nM at ErbB2 WT; at least 5000 nM at EGFR wild type (EGFR WT); 9 nM in series [2]. Further, the efflux ratio at 2 h, 1 μM on BCRP was 2.2.

Turning to `Cc1cc(Nc2ncnc3cnc(N4CCCO4)nc23)ccc1Oc1ccc2c(c1)ncn2C` [Example 178, 6-(isoxazolidin-2-yl)-N-(3-methyl-4-((1-methyl-1H-benzo[d]imidazol-5-yl)oxy)phenyl)pyrimido[5,4-d]pyrimidin-4-amine], the IC50 on EGFR was at least 10000 nM; in series [1] (read-out: Assay 1 IC50), 20.9 nM; against EGFR wild type (EGFR WT) it was at least 5000 nM; in series [2], 9.9 nM. On MDR1 (P-gp) (setting [3]), the efflux ratio at 2 h, 1 μM is 3.7.

For the molecule `Cc1cc(Nc2ncnc3cnc(N(C)C[C@@H](C)O)nc23)ccc1Oc1ccc2c(c1)ncn2C` [Example 189, (R)-1-(methyl(8-((3-methyl-4-((1-methyl-1H-benzo[d]imidazol-5-yl)oxy)phenyl)amino)pyrimido[5,4-d]pyrimidin-2-yl)amino)propan-2-ol], the IC50 is 6460 nM on EGFR, 12.7 nM in series [1] (read-out: Assay 1 IC50), at least 5000 nM on EGFR wild type (EGFR WT) and 13.9 nM in series [2]. Further, the efflux ratio at 2 h, 1 μM on MDR1 (P-gp) (setting [3]) is 4.2.

For `Cc1cc(Nc2ncnc3cnc(N4CC(C)(O)CO4)nc23)ccc1Oc1ccc2c(c1)ncn2C` (centres unmarked) [Example 191, 4-methyl-2-(8-((3-methyl-4-((1-methyl-1H-benzo[d]imidazol-5-yl)oxy)phenyl)amino)pyrimido[5,4-d]pyrimidin-2-yl)isoxazolidin-4-ol], the IC50 is at least 10000 nM at EGFR, 33 nM in series [1] (read-out: Assay 1 IC50), at least 5000 nM at EGFR wild type (EGFR WT) and 36.4 nM in series [2]. Also, the efflux ratio at 2 h, 1 μM on MDR1 (P-gp) (setting [3]) was 36.5.

As to `Cc1cc(Nc2ncnc3cnc(N(C)CC(C)(C)O)nc23)ccc1Oc1cc(F)c2c(c1)ncn2C` [Example 203, 1-((8-((4-((7-fluoro-1-methyl-1H-benzo[d]imidazol-5-yl)oxy)-3-methylphenyl)amino)pyrimido[5,4-d]pyrimidin-2-yl)(methyl)amino)-2-methylpropan-2-ol], the IC50 was 4580 nM at EGFR; 20.3 nM in series [1] (read-out: Assay 1 IC50); 65.4 nM against ErbB2 WT; at least 5000 nM against EGFR wild type (EGFR WT); 8.3 nM in series [2]. The efflux ratio at 2 h, 1 μM on BCRP stood at 1.9.

Consider `Cc1cc(Nc2ncnc3cnc(N(C)CCO)nc23)ccc1Oc1ccc2c(c1)ncn2C` [Example 208, 2-(methyl(8-((3-methyl-4-((1-methyl-1H-benzo[d]imidazol-5-yl)oxy)phenyl)amino)pyrimido[5,4-d]pyrimidin-2-yl)amino)ethan-1-ol], for which the IC50 was 3550 nM against EGFR, 17.3 nM in series [1] (read-out: Assay 1 IC50), at least 5000 nM against EGFR wild type (EGFR WT) and 6 nM in series [2]. For the same molecule, the efflux ratio at 2 h, 1 μM on MDR1 (P-gp) (setting [3]) came to 11.2.

Consider `Cc1cc(Nc2ncnc3cnc(NOCC(C)(C)O)nc23)ccc1Oc1ccc2c(c1)ncn2C` [Example 217, 2-methyl-1-(((8-((3-methyl-4-((1-methyl-1H-benzo[d]imidazol-5-yl)oxy)phenyl)amino)pyrimido[5,4-d]pyrimidin-2-yl)amino)oxy)propan-2-ol], for which the IC50 in series [1] (read-out: Assay 1 IC50) is 23.2 nM; on ErbB2 WT, 53.3 nM; against EGFR wild type (EGFR WT), at least 5000 nM; in series [2], 35.1 nM. In addition, the efflux ratio at 2 h, 1 μM on MDR1 (P-gp) (setting [3]) turned out to be 6.

Regarding `COCCOC1CN(c2ncc3ncnc(Nc4ccc(Oc5ccc6c(c5)ncn6C)c(C)c4)c3n2)C1` [Example 240], the IC50 was at least 10000 nM on EGFR, 41.3 nM in series [1] (read-out: Assay 1 IC50), 77.7 nM against ErbB2 WT and 66.5 nM in series [2]. For the same molecule, the efflux ratio at 2 h, 1 μM on MDR1 (P-gp) (setting [3]) is 2.9.
